Source: patent publication US6884814B2, “Phenyl benzisoxazoles as estrogenic agents” (Wyeth, priority 2001, dated 2005)

Tests used:
human ERα = target: T1, human ERα (Homo sapiens, UniProt P03372); experiment: Radioligand binding competition with [3H]-17β-estradiol, ERα; details: human ERα ligand binding domain, E. coli lysate, read-out: ER-α IC50
T1 construct: amino acids M250-V595 of human ERα; His (N); made in house; host or cells: E. coli BL21(DE3), clarified lysate
T1 sequence (P03372 250-595): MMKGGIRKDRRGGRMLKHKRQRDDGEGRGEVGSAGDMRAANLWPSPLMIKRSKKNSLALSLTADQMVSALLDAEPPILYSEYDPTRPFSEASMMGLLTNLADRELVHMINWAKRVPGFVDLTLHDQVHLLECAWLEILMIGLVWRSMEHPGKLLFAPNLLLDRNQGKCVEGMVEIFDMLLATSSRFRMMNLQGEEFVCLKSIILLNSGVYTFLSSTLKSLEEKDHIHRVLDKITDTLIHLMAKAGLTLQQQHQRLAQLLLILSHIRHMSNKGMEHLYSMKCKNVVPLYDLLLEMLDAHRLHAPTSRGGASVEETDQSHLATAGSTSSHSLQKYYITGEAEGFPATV

human ERβ = target: T2, human ERβ (Homo sapiens, UniProt Q92731); experiment: Radioligand binding competition with [3H]-17β-estradiol, ERβ; details: human ERβ ligand binding domain, E. coli lysate, read-out: ER-β IC50
T2 construct: M214-Q530 of human ERβ; Flag (C); made in house; host or cells: E. coli BL21(DE3), clarified lysate
T2 sequence (Q92731 214-530): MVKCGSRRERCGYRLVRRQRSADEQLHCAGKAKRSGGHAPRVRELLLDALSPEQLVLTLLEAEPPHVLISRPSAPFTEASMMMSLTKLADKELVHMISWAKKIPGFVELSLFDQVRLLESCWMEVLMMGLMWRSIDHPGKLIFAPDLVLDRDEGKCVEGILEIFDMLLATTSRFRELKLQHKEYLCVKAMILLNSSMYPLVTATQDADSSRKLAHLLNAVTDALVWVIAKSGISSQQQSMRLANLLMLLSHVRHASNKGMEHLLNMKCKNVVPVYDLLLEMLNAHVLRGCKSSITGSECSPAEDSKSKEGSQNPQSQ

Row | IC50 (human ERα) [µM] | IC50 (human ERβ) [µM] | melting point [°C] | Structure (SMILES)
1 | 5 | – | – | Oc1ccc2c(-c3ccccc3O)noc2c1 [Example 9, 3-(2-Hydroxyphenyl)-1,2-benzisoxazol-6-ol]
2 | 2 | 0.208 | 267 to 270 | Oc1ccc(-c2noc3c(Br)cc(O)cc23)cc1 [Example 13, 7-Bromo-3-(4-hydroxyphenyl)-1,2-benzisoxazol-5-ol]
3 | 0.038 | 0.02 | – | CCCc1cc(-c2noc3cc(O)ccc23)c(CC(C)C)cc1O [Example 4, 3-(4-Hydroxy-2-isobutyl-5-propylphenyl)-1,2-benzisoxazol-6-ol]
4 | 3 | 0.254 | 215 to 217 | Oc1ccc(O)c(-c2noc3cc(O)ccc23)c1 [Example 10, 2-(6-Hydroxy-1,2-benzisoxazol-3-yl)benzene-1,4-diol]
